# “Also recorded” adds a separate entry of the source.
# Legend:
# Type in all cases: cell-based
# [1] = biological target: T1, P2Y1 (Homo sapiens, UniProt P47900); assay: Intracellular Ca2+ release in HEK293 cells transfected with P2RY1; conditions: HEK293 transfected with P2RY1, Fig. 3f
# T1 construct: expressed in transfected cells; host or cells: HEK293
# Method: (§1) For fluorometric measurements of intracellular Ca^2+ levels with the FlexStationII instrument (Molecular Devices), RAW264.7 and H1819 cells were seeded into 96-well plates (3.0 × 10^4 cells/well) 24 h prior to assay. Ca^2+ measurements with transiently transfected HEK293 cells were performed 48 h after transfection. Cells were loaded with 200 µl Calcium 5 reagent (Explorer Kit, Molecular Devices, USA) for 60 min at 37 °C, and the assay was performed as described. Agonists and inhibitors were solved in DMSO (100x) and diluted […] in 96-well compound plates containing HBSS. 50 µl of compound solution were added to the assay plate resulting in final concentration of 1% DMSO. Fold-response was calculated by RFUmax − RFUmin (ligand)/RFUmax − RFUmin (vehicle). EC50 values were calculated by using GraphPad Prism6 software (GraphPad, USA).
# [2] = biological target: T2, P2Y12 (Homo sapiens, UniProt Q9H244); assay: Intracellular Ca2+ release in HEK293 cells transfected with P2RY12; conditions: HEK293 transfected with P2RY12, Fig. 3f
# T2 construct: expressed in transfected cells; host or cells: HEK293
# T2 sequence (Q9H244 whole entry, species assumed): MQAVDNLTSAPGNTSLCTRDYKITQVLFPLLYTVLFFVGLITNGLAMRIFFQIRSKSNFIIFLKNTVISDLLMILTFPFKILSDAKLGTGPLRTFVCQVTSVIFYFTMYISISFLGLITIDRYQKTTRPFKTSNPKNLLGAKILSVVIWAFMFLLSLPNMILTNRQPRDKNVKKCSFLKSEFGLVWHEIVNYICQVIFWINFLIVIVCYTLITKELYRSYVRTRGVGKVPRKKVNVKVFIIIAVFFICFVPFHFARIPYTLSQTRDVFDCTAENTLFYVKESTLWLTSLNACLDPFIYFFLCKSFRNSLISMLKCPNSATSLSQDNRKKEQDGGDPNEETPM
# Method: as §1
# [3] = biological target: T3, P2Y6 (Homo sapiens, UniProt Q15077); assay: Functional readouts at P2Y6, summary statements; conditions: Fig. 5a–d
# T3 sequence (Q15077 whole entry): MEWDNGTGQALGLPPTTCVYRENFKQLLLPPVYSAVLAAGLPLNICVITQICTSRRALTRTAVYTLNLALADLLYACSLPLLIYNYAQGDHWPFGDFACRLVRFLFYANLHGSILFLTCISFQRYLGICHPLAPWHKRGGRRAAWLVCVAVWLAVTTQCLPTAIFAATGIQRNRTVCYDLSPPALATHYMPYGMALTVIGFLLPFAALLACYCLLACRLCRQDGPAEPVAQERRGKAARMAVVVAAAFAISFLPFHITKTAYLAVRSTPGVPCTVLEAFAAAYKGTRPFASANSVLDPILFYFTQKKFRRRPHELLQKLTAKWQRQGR
# [4] = biological target: T3, P2Y6; assay: Intracellular Ca2+ measurement in HEK293 cells transfected with P2RY6; parameters: expressed in transfected cells; host or cells: HEK293; conditions: HEK293 stably transfected with P2RY6, Fig. 5c,d
# Method: (§2) RAW264.7 cells were grown in DMEM supplemented with 10% FBS, A7r5 (rat […]) cells in DMEM with 10% FBS, and A431 (human squamous carcinoma) cells in RPMI supplemented with 10% FBS. All cell lines were grown at 37 °C in a humidified 5% CO2 incubator. For functional assays, receptor constructs were heterologously expressed in human embryonic kidney (HEK293) cells upon transient or stable transfection. Cells were grown in DMEM/F12 supplemented with 10% FBS, 100 units/ml penicillin, and 100 µg/ml streptomycin. For the cAMP-inhibition assay, ERK1/2 phosphorylation assay, and Ca^2+ mobilization assay, cells were split into 96-well plates (2.0 × 10^4 cells/well) and transfected with 250 ng vector construct using MACSfectin™ (Miltenyi Biotec, Germany) according to manufacturer’s protocol. Empty vector (mock) served as the negative control. For siRNA experiments, cells were seeded in 6-well plates (4.0 × 10^5 and 6.0 × 10^5 cells/well for RAW264.7 and H1819, respectively). RAW264.7 and H1819 cells were transfected with 150 pMol of mP2RY6 siRNA and hP2RY6 siRNA (Santa Cruz Biotechnology, USA), respectively, using Viromer® Blue (Lipocalyx, Germany). As a negative control, control siRNA-A (Santa Cruz Biotechnology, USA) was used. FITC-labelled siRNA served as a transfection control.
# To generate a cell line stably expressing P2Y6, HEK293 cells were seeded in 6-well plates (7.5 × 10^5 cells/well) and transfected with 3 µg vector using MACSfectin™ as transfection regent according to the manufacturer’s protocol. The pIRES-eGFP vector served as negative control. Stably transfected HEK293 cells were cultured in the presence of geneticin (500 µg/ml) for selection.
# as §1
# [5] = biological target: T3, P2Y6; assay: Agonist-induced receptor internalization, cell surface ELISA; parameters: expressed in transfected cells; host or cells: HEK293; conditions: Fig. 5e
# Method: To estimate cell surface expression of heterologously expressed receptors carrying an N-terminal HA tag, an indirect cellular ELISA was used[57]. To determine the endogenous cell surface expression of P2Y6, the same ELISA procedure was performed with minor modifications. Briefly, after 4% paraformaldehyde fixation and blocking with 10% FBS, cells were incubated with the primary anti-P2Y6 antibody (sc-15215; Santa Cruz Biotechnology, USA) in 1:1,000 dilution for 1 h. After washing with PBS, cells were incubated with peroxidase-conjugated secondary antibody anti-goat IgG (sc-2020, Santa Cruz Biotechnology, USA) in 1:5,000 dilutions.
# [6] = biological target: T3, P2Y6; assay: IP1 accumulation assay in HEK293 cells transfected with wildtype P2RY6; parameters: expressed in transfected cells; host or cells: HEK293; conditions: HEK293 stably transfected with P2RY6, increasing antagonist concentrations, Fig. 5a,b
# Method: To measure intracellular IP3 the HitHunter® Inositol (1,4,5) Triphosphate Assay (DiscoveRx, USA) was used according to manufacturer′s protocol. HEK293 cells stably transfected with hP2RY6 were seeded in a 384-well Black microtiter plate (15,000 cells/well) (Greiner Bio One, Germany) and incubated with indicated concentrations of UDP and PGE2-G for 20 seconds. Reaction was stopped by adding 5 µl 0.2 N perchloric acid and measurement of IP3 was performed with the Fusion AlphaScreen multilabel reader (PerkinElmer Life Sciences) according to manufacturer′s protocol. To measure IP1, HEK293 cells expressing wildtype and mutant P2Y6 were seeded into 384-well plates (5,000 cells/well) 24 h prior assay. After aspiration of the medium, cells were incubated with indicated concentrations of agonists/antagonist for 1 h. IP1 measurements using the IP-one HTFR® assay kit (Cisbio assays, USA) were performed according to manufacturer′s protocol. The assays were performed with a final concentration of 1% DMSO.
# [7] = biological target: T4, cannabinoid receptor 2 (Cnr2) (Homo sapiens, UniProt P34972); assay: Intracellular Ca2+ measurement in CNR2-transfected HEK293 cells; conditions: 200 nM of 2-AG, Fig. 2c
# T4 construct: expressed in transfected cells; host or cells: HEK293
# T4 sequence (P34972 whole entry): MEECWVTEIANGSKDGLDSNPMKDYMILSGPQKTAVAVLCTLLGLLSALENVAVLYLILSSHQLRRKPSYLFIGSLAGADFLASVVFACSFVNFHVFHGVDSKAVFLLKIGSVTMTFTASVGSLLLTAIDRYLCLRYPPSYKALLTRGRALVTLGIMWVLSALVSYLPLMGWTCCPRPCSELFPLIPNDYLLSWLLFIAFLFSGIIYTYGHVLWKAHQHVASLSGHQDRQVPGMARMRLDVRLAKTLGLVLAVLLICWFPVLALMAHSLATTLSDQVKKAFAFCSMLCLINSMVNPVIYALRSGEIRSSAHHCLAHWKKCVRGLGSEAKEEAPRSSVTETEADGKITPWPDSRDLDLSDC
# Method: as §2, with “RAW264.7 and H1819 cells were transfected with 150 pMol of mP2RY6 siRNA and hP2RY6 siRNA (Santa Cruz Biotechnology, USA), respectively, using Viromer® Blue (Lipocalyx, Germany). As a negative control, control siRNA-A (Santa Cruz Biotechnology, USA) was used. FITC-labelled siRNA served as a transfection control.” left out
# For fluorometric measurements of intracellular Ca^2+ levels with the FlexStationII instrument (Molecular Devices), RAW264.7 and H1819 cells were seeded into 96-well plates (3.0 × 10^4 cells/well) 24 h prior to assay. […] Fold-response was calculated by RFUmax − RFUmin (ligand)/RFUmax − RFUmin (vehicle). EC50 values were calculated by using GraphPad Prism6 software (GraphPad, USA).
# T1 sequence (P47900 whole entry, species assumed): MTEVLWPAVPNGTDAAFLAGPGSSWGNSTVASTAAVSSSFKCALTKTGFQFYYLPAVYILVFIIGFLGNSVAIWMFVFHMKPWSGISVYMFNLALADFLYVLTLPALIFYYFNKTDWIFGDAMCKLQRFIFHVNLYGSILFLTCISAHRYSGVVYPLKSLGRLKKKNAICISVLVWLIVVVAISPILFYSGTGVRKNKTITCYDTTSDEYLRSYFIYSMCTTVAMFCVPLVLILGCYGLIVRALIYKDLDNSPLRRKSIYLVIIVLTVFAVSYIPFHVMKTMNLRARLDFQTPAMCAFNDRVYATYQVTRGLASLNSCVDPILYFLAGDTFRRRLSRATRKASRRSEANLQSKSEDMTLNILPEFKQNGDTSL
smiles,measurement,setting,value
Nc1ncnc2c1ncn2[C@@H]1O[C@H](COP(=O)(O)OP(=O)(O)O)[C@@H](O)[C@H]1O [ADP],Ca2+ release,[1],led to Ca^2+ release
same,Ca2+ release,[2],led to Ca^2+ release
S=C=Nc1cccc(NC(=S)NCCCCNC(=S)Nc2cccc(N=C=S)c2)c1 [MRS2578],mode of antagonism,[3],antagonist with mixed properties (competitive and non-competitive)
same,effect of antagonist on UDP- and PGE2-G-triggered Ca2+ release,[4],"same effects; also recorded: reduced both, the efficacies and potencies"
same,effect of antagonist on agonist-induced internalization,[5],blocked the internalization
same,effect of antagonist on UDP- and PGE2-G-triggered IP1 accumulation,[6],"reduced both the efficacies and potencies; also recorded: reduced both, the efficacies and potencies"
"CCCCC/C=C\C/C=C\C/C=C\C/C=C\CCCC(=O)OC(CO)CO [2-AG, 2-arachidonoylglycerol]",effect on intracellular Ca2+,[7],robust intracellular Ca^2+ increase; also recorded: elevated intracellular Ca^2+
